According to the supplement of paper PMC10307832:

Key:
Experiment in all cases: relative viability (nuclei count vs DMSO), 5 days (fraction); higher = more cells survive
[1] = compound: CC(=O)Nc1cccc(-n2c(=O)n(C3CC3)c(=O)c3c(Nc4ccc(I)cc4F)n(C)c(=O)c(C)c32)c1 [Trametinib] + Cc1nc(NC(=O)N2CCC[C@H]2C(N)=O)sc1-c1ccnc(C(C)(C)C(F)(F)F)c1 [Alpelisib] (partner 2 µM)
Method in brief: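 Five library-drug doses in √10 steps were combined with a fixed anchor-drug dose, or a single drug was given alone, by pin tool to lung cancer cell lines in 1536-well plates the day after seeding. Nuclei were stained and counted after 5 days. Relative viability is the nuclei count in treated wells over that in vehicle wells, taken as the median of duplicate plates.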

[2] = compound: CN1C=C(C2=CC=CC=C21)/C=C\3/C4=C(C=CC=N4)NC3=O
Method in brief: (§1)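 Lung cancer cell lines received five library-drug doses (not always all listed) spaced by √10, pinned on vehicle-anchored 1536-well plates after an overnight stay at 37 °C. Five days later, with no medium change, nuclei were Hoechst-stained, imaged at 4× and counted with MetaXpress. Viability is treated-well nuclei relative to vehicle-well nuclei, as a median across plates. Passing plates had control CV below 25% and at least one doubling.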

[3] = compound: CC(=O)Nc1cccc(-n2c(=O)n(C3CC3)c(=O)c3c(Nc4ccc(I)cc4F)n(C)c(=O)c(C)c32)c1 [Trametinib]
Method in brief: as §1

UMC-11
relative viability ([1]; first compound 0.0025 µM): 0.904
relative viability ([1]; first compound 0.007906 µM): 0.981
relative viability ([1]; first compound 0.025 µM): 0.956
relative viability ([1]; first compound 0.07906 µM): 0.876
relative viability ([1]; first compound 0.25 µM): 0.945
relative viability ([2]; 0.02 µM): 0.876
relative viability ([2]; 0.06325 µM): 0.884
relative viability ([2]; 0.2 µM): 0.771
relative viability ([2]; 0.6325 µM): 0.968
relative viability ([2]; 2 µM): 1.17
relative viability ([3]; 0.0025 µM): 0.931
relative viability ([3]; 0.007906 µM): 1.03
relative viability ([3]; 0.02 µM, anchor plate): 0.722
relative viability ([3]; 0.025 µM): 0.658
relative viability ([3]; 0.07906 µM): 0.92
relative viability ([3]; 0.25 µM): 0.985
